# The NIST ThermoML archive (doi:10.1021/je100819f)
# ± gives the expanded uncertainty stated by the source.
# Details: Crystal; DTA
smiles,measurement,value
"O=C1C=CC(=O)N1c1cc(F)c(Br)c(F)c1 [1-(4-bromo-3,5-difluorophenyl)-1H-pyrrole-2,5-dione]",Normal melting temperature,197.5 ± 0.7 °C
